Source: patent US20250179013A1, “INHIBITORS OF RNA HELICASE DHX9 AND USES THEREOF” (ACCENT THERAPEUTICS, INC., priority 2022, published 2025)

Molecular target: T1, Human recombinant DHX9 protein (Homo sapiens, UniProt Q08211)
T1 construct: purchased Viva
Assay: DHX9 ATPase assay (ADP-Glo biochemical assay)
Conditions: for DHX9 Biochemical Max Inhibition: maximum inhibition in ATPase assay, 10 μM Aurintricarboxylic acid = 100%; for IC50: read-out: DHX9 Biochemical Inflection Point

T1 sequence (Q08211 whole entry): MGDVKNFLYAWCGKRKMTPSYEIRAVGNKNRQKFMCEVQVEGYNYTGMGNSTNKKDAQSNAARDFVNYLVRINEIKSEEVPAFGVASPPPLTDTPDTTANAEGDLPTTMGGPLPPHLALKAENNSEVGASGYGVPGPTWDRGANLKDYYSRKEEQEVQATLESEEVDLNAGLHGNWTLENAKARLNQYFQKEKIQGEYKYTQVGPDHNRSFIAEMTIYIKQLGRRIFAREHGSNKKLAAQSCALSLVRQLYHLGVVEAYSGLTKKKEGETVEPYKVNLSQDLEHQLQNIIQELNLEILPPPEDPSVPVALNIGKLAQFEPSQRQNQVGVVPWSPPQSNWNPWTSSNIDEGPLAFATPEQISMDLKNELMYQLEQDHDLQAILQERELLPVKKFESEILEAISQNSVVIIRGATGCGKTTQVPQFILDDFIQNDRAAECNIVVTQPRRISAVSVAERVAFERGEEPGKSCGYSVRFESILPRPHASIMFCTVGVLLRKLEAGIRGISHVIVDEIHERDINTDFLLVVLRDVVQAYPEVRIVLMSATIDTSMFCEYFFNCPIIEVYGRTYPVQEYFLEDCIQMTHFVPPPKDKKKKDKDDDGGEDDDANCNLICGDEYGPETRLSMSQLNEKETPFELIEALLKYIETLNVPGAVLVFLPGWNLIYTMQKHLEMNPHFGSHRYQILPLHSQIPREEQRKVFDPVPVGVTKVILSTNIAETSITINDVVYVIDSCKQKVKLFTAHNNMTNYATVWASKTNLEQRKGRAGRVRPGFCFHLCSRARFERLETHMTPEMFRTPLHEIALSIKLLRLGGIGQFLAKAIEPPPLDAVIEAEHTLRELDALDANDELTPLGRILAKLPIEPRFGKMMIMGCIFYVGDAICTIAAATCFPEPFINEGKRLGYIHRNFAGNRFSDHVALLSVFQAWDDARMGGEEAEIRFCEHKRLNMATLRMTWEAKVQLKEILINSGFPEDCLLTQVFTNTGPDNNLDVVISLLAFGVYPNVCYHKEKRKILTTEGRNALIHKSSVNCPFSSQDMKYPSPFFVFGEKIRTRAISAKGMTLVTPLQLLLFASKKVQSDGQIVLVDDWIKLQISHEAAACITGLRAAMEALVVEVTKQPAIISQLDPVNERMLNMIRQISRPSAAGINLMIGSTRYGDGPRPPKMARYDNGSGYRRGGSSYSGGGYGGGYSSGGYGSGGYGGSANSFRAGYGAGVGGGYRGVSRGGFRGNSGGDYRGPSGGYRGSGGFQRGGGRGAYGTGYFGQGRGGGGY

Compound | DHX9 Biochemical Max Inhibition [%] | IC50 [nM]
CS(=O)(=O)Nc1cccc(NC(=O)c2cc(-c3ccccc3)ccn2)c1 [Example 2] | 50.4 | 7270
CS(=O)(=O)Nc1cccc(NC(=O)c2ccc(OCc3ccccc3)cc2)c1 [Example 3] | 44.3 | 1230
CS(=O)(=O)Nc1cccc(NC(=O)c2cccc(OCc3ccccc3)c2)c1 [Example 4] | 55.1 | 3050
CS(=O)(=O)Nc1cccc(NC(=O)c2ccc(-c3ccccc3)s2)c1 [Example 5] | 37.7 | 2970
Cc1ccccc1-c1nc(C(=O)Nc2cccc(NS(C)(=O)=O)c2)cs1 [Example 8] | 47.7 | 1760
CS(=O)(=O)Nc1cccc(NC(=O)c2ccccc2N2CCCCC2)c1 [Example 9] | 48.3 | 3940
Cc1ccc(Nc2cccc(C(=O)Nc3cccc(NS(C)(=O)=O)c3)c2)nn1 [Example 10] | 79.8 | 1540
Cc1nnc(-c2ccc(C(=O)Nc3cccc(NS(C)(=O)=O)c3)cc2)o1 [Example 11] | 47.5 | 5650
CCn1ncc(C(=O)Nc2cccc(NS(C)(=O)=O)c2)c1C1CC1 [Example 18] | 58.6 | 92400
Cc1nc(COc2ccc(C(=O)Nc3cccc(NS(C)(=O)=O)c3)cc2)cs1 [Example 22] | 71.7 | 1220
CS(=O)(=O)Nc1cccc(NC(=O)c2ccc(-n3cccc3)cc2)c1 [Example 23] | 51.4 | 943
CS(=O)(=O)Nc1cccc(NC(=O)c2csc(-c3ccc(F)cc3)n2)c1 [Example 24] | 62.5 | 1040
Cc1cc(C(=O)Nc2cccc(NS(C)(=O)=O)c2)c(C)n1C1CC1 [Example 25] | 67.1 | 2320
CS(=O)(=O)Nc1cccc(NC(=O)c2ccc(S(=O)(=O)Nc3ccncc3)cc2)c1 [Example 27] | 63.8 | 1610
Cn1nc(C(=O)Nc2cccc(NS(C)(=O)=O)c2)cc1C1CCCC1 [Example 29] | 81.3 | 1430
CS(=O)(=O)Nc1cccc(NC(=O)c2csc(C3CC3)n2)c1 [Example 32] | 67.9 | 5770
CS(=O)(=O)Nc1cccc(NC(=O)c2cnn(Cc3ccccc3)c2)c1 [Example 35, 1-benzyl-N-(3-methanesulfonamidophenyl)pyrazole-4-carboxamide] | 69.3 | 1490

Compound | DHX9 Biochemical Max Inhibition [%] | IC50 [nM]
CS(=O)(=O)Nc1cccc(NC(=O)c2cc(-c3ccccc3)[nH]n2)c1 [Example 36] | 56.3 | 1860
CS(=O)(=O)Nc1cccc(NC(=O)c2ccc(-c3ccccc3)cc2)c1 [Example 38] | 38.6 | 345
CS(=O)(=O)Nc1cccc(NC(=O)c2ccc(-n3cccn3)cc2)c1 [Example 39] | 55.3 | 994
Cc1ccccc1-c1csc(C(=O)Nc2cccc(NS(C)(=O)=O)c2)c1 [Example 46] | 73.9 | 123
Cc1ccc(-c2csc(C(=O)Nc3cccc(NS(C)(=O)=O)c3)c2)cc1 [Example 48] | 67.5 | 105
CS(=O)(=O)Nc1cccc(NC(=O)c2cc(-c3ccc(O)cc3)[nH]n2)c1 [Example 64] | 78.1 | 589
COc1cccc(-c2csc(C(=O)Nc3cccc(NS(C)(=O)=O)c3)c2)c1C [Example 67] | 70.1 | 980
COc1ccc(-c2cc(C(=O)Nc3cccc(NS(C)(=O)=O)c3)n[nH]2)cc1 [Example 78] | 61.5 | 698
CS(=O)(=O)Nc1cccc(NC(=O)c2cc(-c3ccccc3)c(Br)s2)c1 [Example 98, 5-bromo-N-(3-(methylsulfonamido)phenyl)-4-phenylthiophene-2-carboxamide] | 77.7 | 543
CS(=O)(=O)Nc1cccc(NC(=O)c2cc(C(=O)NCCc3cccnc3)cs2)c1 [Example 103] | 71.7 | 126
CS(=O)(=O)Nc1cccc(NC(=O)c2cc(C(=O)NCC3(O)CCCCC3)cs2)c1 [Example 105] | 70.3 | 210
COc1ccc(NC(=O)c2csc(C(=O)Nc3cccc(NS(C)(=O)=O)c3)c2)cn1 [Example 106] | 72.3 | 67.9
CC(NC(=O)c1csc(C(=O)Nc2cccc(NS(C)(=O)=O)c2)c1)c1ccccc1 (stereo not shown) [Example 110] | 68.9 | 81.9
Cc1cc(NC(=O)c2csc(C(=O)Nc3cccc(NS(C)(=O)=O)c3)c2)ccc1Cl [Example 113] | 59.7 | 515
CS(=O)(=O)Nc1cccc(NC(=O)c2cc(C(=O)Nc3ccccc3Oc3ccccc3)cs2)c1 [Example 115] | 75 | 436
CS(=O)(=O)Nc1cccc(NC(=O)c2cc(C(=O)NCc3ccc(N4CCOCC4)cc3)cs2)c1 [Example 116] | 74.5 | 70.8
CS(=O)(=O)Nc1cccc(NC(=O)c2cc(C(=O)Nc3cccc4c3CCO4)cs2)c1 [Example 123] | 68.3 | 59.2

Further lines, results first:

DHX9 Biochemical Max Inhibition [%] | IC50 [nM] | Compound
73.3 | 804 | Cc1nc(-c2cc(C(=O)Nc3cccc(NS(C)(=O)=O)c3)co2)cs1 [Example 7]
52.5 | 2390 | CS(=O)(=O)Nc1cccc(NC(=O)c2csc(NC3CC3)n2)c1 [Example 13]
70.4 | 5090 | CS(=O)(=O)Nc1cccc(NC(=O)c2ccc(C(=O)NC3CC3)cc2)c1 [Example 14]
50.7 | 2540 | Cc1cc(C(=O)Nc2cccc(NS(C)(=O)=O)c2)nn1C1CCOCC1 [Example 17]
49.6 | 6330 | CS(=O)(=O)Nc1cccc(NC(=O)c2csc(N3CCCCC3)n2)c1 [Example 19]
72.4 | 3850 | CS(=O)(=O)Nc1cccc(NC(=O)c2ccc(-c3nnn[nH]3)cc2)c1 [Example 21]
60.6 | 56900 | Cc1ccc(C)n1-c1sccc1C(=O)Nc1cccc(NS(C)(=O)=O)c1 [Example 26]
76.4 | 4080 | CS(=O)(=O)Nc1cccc(NC(=O)c2cccc(OCc3cccs3)c2)c1 [Example 28]
69.1 | 34100 | CS(=O)(=O)Nc1cccc(NC(=O)c2csc(S(=O)(=O)N3CCOCC3)c2)c1 [Example 30]
70.4 | 4850 | Cc1cc(C)n(Cc2ccc(C(=O)Nc3cccc(NS(C)(=O)=O)c3)o2)n1 [Example 34]
67 | 1720 | CS(=O)(=O)Nc1cccc(NC(=O)c2cccc(-c3ccccc3)c2)c1 [Example 37]
71.4 | 544 | CS(=O)(=O)Nc1cccc(NC(=O)c2nc(-c3ccccc3)cs2)c1 [Example 42]
68.7 | 373 | CS(=O)(=O)Nc1cccc(NC(=O)c2cnn(-c3ncccn3)c2)c1 [Example 43]
67.7 | 264 | Cc1cccc(-c2csc(C(=O)Nc3cccc(NS(C)(=O)=O)c3)c2)c1 [Example 47]
70.3 |  | COc1ccc(C)c(-c2csc(C(=O)Nc3cccc(NS(C)(=O)=O)c3)c2)c1 [Example 68]
66.5 | 1860 | CS(=O)(=O)Nc1cccc(NC(=O)c2cc(Cc3ccccc3)cs2)c1 [Example 71]
79.1 | 54 | CS(=O)(=O)Nc1cccc(NC(=O)c2cc(-c3ccccc3)c(C(=O)O)s2)c1 [Example 101, 5-[(3-methanesulfonamidophenyl)carbamoyl]-3-phenylthiophene-2-carboxylic acid]
67.3 | 504 | Cc1ccc(NC(=O)c2csc(C(=O)Nc3cccc(NS(C)(=O)=O)c3)c2)cc1Cl [Example 104]
74.6 | 168 | Cc1c(NC(=O)c2csc(C(=O)Nc3cccc(NS(C)(=O)=O)c3)c2)c(=O)n(-c2ccccc2)n1C [Example 107]
64.4 | 708 | CS(=O)(=O)Nc1cccc(NC(=O)c2cc(C(=O)Nc3ccc(OC(F)(F)F)cc3)cs2)c1 [Example 108]
68.9 | 101 | CS(=O)(=O)Nc1cccc(NC(=O)c2cc(C(=O)NC3Cc4ccccc4C3)cs2)c1 [Example 112]
73.5 | 71.4 | CN(C)C(=O)c1ccc(NC(=O)c2csc(C(=O)Nc3cccc(NS(C)(=O)=O)c3)c2)cc1 [Example 114]
52.7 | 686 | CS(=O)(=O)Nc1cccc(NC(=O)c2cc(C(=O)Nc3ccc(Oc4ccccc4)cc3)cs2)c1 [Example 117]
66.2 | 99.4 | CC(C)Oc1ccc(NC(=O)c2csc(C(=O)Nc3cccc(NS(C)(=O)=O)c3)c2)cc1 [Example 118]
70.4 | 50.5 | CS(=O)(=O)Nc1cccc(NC(=O)c2cc(C(=O)Nc3cccc(OC(F)(F)F)c3)cs2)c1 [Example 120]
68.9 | 1070 | CC(C)Oc1cccc(NC(=O)c2csc(C(=O)Nc3cccc(NS(C)(=O)=O)c3)c2)c1 [Example 121]
69.7 | 196 | CS(=O)(=O)Nc1cccc(NC(=O)c2cc(C(=O)Nc3ccc(OCCN4CCOCC4)cc3)cs2)c1 [Example 122]
